According to patent US20240425464A1, “Substituted Monohydrazides as Potent Antifungal Agents” (University of Kentucky Research Foundation, priority 2023, published 2024):
≈ marks a conversion by molar mass, not a printed value.

Experiments:
[1] = tested on: panel of ten C. auris strains (AR Bank #381-390); assay: MIC determination, summary over the C. auris panel; format: cell-based, Candida auris; details: Candidozyma auris; against all ten C. auris strains tested (AR Bank #381-390)
Procedure: (§1) The antifungal agent amphotericin B (AmB) was purchased from VWR (Radnor PA, USA). AmB was dissolved in DMSO at a final concentration of 5 mg/mL and was stored at −20° C., protected from light. Candida albicans American Type Culture Collection (ATCC) 10231 (strain A), C. albicans ATCC 64124 (B), and C. albicans ATCC MYA-2876 (C) were obtained from Utah State University. C. albicans ATCC 90819 (D), C. albicans ATCC MYA-2310 (E), C. albicans ATCC MYA-1237 (F), C. albicans ATCC MYA-1003 (G), Candida glabrata ATCC 2001 (H), Candida krusei ATCC 6258 (I), Candida parapsilosis ATCC 22019 (J), Cryptococcus neoformans ATCC MYA-895 (M), Aspergillus terreus ATCC MYA-3633 (N), and Aspergillus flavus ATCC MYA-3631 (0) were obtained from the American Type Culture Collection (ATCC; Manassas, VA, USA). Aspergillus nidulans ATCC 38163 (P) was obtained from University of Kentucky. Clinically derived Aspergillus fumigatus NRRL 163 (Q), A. fumigatus NRRL 5109 (R), and A. fumigatus NRRL 6113 (S) were obtained from Northern Regional Research Laboratory (NRRL). Candida auris 384 (K), C. auris 390 (L), and fungal strains 381-400 (including 10 C. auris (AR Bank #381-390), 3 Candida duobushaemulonii (AR Bank #391, AR Bank #392, and AR Bank #394), 2 Candida haemulonii (AR Bank #393 and AR Bank #395), 1 Kodameae ohmeri (AR Bank #396), 1 C. krusei (AR Bank #397), 1 Candida lusitaniae (AR Bank #398), and 2 Saccharomyces cerevisiae strains (AR Bank #399 and AR Bank #400)) were part of a larger fungal library from the AR Bank maintained by the Centers for Disease Control and Prevention (CDC; Atlanta, GA, USA). Filamentous fungi and yeasts were cultivated at 35° C. in RPMI 1640 medium (with L-glutamine, without sodium bicarbonate, Sigma-Aldrich, St. Louis, MO) buffered to a pH of 7.0 with 0.165 M morpholinepropanesulfonic acid (MOPS) buffer (Sigma-Aldrich). For cytotoxicity assays, HepG2 and the mouse macrophage cell line J774A.1 were obtained from University of Kentucky. The human embryonic kidney cell line, HEK-293, was bought from the ATCC. Mammalian cells were grown in Dulbecco's Modified Eagle's Medium (DMEM) (from VWR) with 10% fetal bovine serum (FBS) (from VWR) and 1% Pen/Strep (from ATCC). Cell lines were cultured at 37° C. with 5% CO2 and passaged by trypsinization with 0.05% trypsin: 0.53 mM EDTA (from Sigma-Aldrich).
(§2) From the actively growing yeast culture, 100 µL were then transferred to 900 μL of RPMI 1640 medium and re-adjusted to achieve OD600 of 0.12 (˜1×10^6 CFU/mL). The cell suspension was further diluted to achieve 1:100 in RPMI 1640 medium.

[2] = tested on: ten other fungal strains (AR Bank #391-400); assay: MIC determination, summary over ten additional fungal strains; format: cell-based; details: read-out: MIC range
Procedure: as §1, §2

HepG2 cells = assay: In vitro cytotoxicity assay (resazurin); format: cell-based; details: for toxicity: up to 31.3 j·tg mL^−1, 24 h
Procedure: The antifungal agent amphotericin B (AmB) was purchased from VWR (Radnor PA, USA). AmB was dissolved in DMSO at a final concentration of 5 mg/mL and was stored at −20° C., protected from light. […] For cytotoxicity assays, HepG2 and the mouse macrophage cell line J774A.1 were obtained from University of Kentucky. […] Mammalian cells were grown in Dulbecco's Modified Eagle's Medium (DMEM) (from VWR) with 10% fetal bovine serum (FBS) (from VWR) and 1% Pen/Strep (from ATCC). Cell lines were cultured at 37° C. with 5% CO2 and passaged by trypsinization with 0.05% trypsin: 0.53 mM EDTA (from Sigma-Aldrich).
Cytotoxicity assays were performed as previously described with slight modifications.^3 HepG2, J774A.1, and HEK-293 cells were first thawed from frozen stocks kept in liquid N2 and grown in Dulbecco's modified Eagles's medium (DMEM) containing 10% fetal bovine serum (FBS) and 1% Pen/Strep. […] The 96-well plates were incubated 37° C. with 5% CO2 overnight. […] The medium in the 96-well plates containing the cells was aspirated and replaced by fresh DMEM (100 μL). […] The 96-well plates were further incubated for 24 h at 37° C. with 5% CO2 overnight. To evaluate cell survival, each well was treated with 10 μL (2 mM) of resazurin sodium salt (Sigma-Aldrich, St. Louis, MO, USA) and was incubated for another 6 h. Metabolically active cells can convert resazurin to the highly fluorescent dye, resorufin, and be detected at ?560 excitation and λ590 emission using a SpectraMax M5 plate reader (Molecular Devices, San Jose, CA, USA). Triton X-100® (1%, v/v) was used as positive control; the negative control consisted of cells treated with the delivery vehicle (0.05% DMSO), and the blank control was only the culture medium with 0.05% DMSO without cells. The experiments were performed in quadruplicate.

[3] = tested on: Saccharomyces cerevisiae AR Bank #399; assay: MIC determination by in vitro antifungal assay; format: cell-based; details: read-out: MIC
Procedure: as §1, §2

[4] = tested on: Candida duobushaemulonii AR Bank #394; assay: MIC determination by in vitro antifungal assay; format: cell-based; details: Candidozyma duobushaemuli, read-out: MIC
Procedure: as §1, §2

[5] = tested on: Candida haemulonii AR Bank #395; assay: MIC determination by in vitro antifungal assay; format: cell-based; details: Candidozyma haemuli, read-out: MIC
Procedure: as §1, §2

[6] = tested on: Kodameae ohmeri AR Bank #396; assay: MIC determination by in vitro antifungal assay; format: cell-based; details: strain AR Bank #396; read-out: MIC
Procedure: as §1, §2

[7] = tested on: Candida haemulonii AR Bank #393; assay: MIC determination by in vitro antifungal assay; format: cell-based; details: Candidozyma haemuli, read-out: MIC
Procedure: as §1, §2

[8] = tested on: Candida lusitaniae AR Bank #398; assay: MIC determination by in vitro antifungal assay; format: cell-based; details: Clavispora lusitaniae; Candida strain AR Bank #398; read-out: MIC
Procedure: as §1, §2

[9] = tested on: Candida duobushaemulonii AR Bank #391; assay: MIC determination by in vitro antifungal assay; format: cell-based; details: Candidozyma duobushaemuli, read-out: MIC
Procedure: as §1, §2

[10] = tested on: Candida krusei AR Bank #397; assay: MIC determination by in vitro antifungal assay; format: cell-based; details: Pichia kudriavzevii; Candida strain AR Bank #397; read-out: MIC
Procedure: as §1, §2

[11] = tested on: Candida duobushaemulonii AR Bank #392; assay: MIC determination by in vitro antifungal assay; format: cell-based; details: Candidozyma duobushaemuli, read-out: MIC
Procedure: as §1, §2

O=C(NNc1ccc(F)cc1F)c1ccccn1 [Compound 2g]
MIC [1]: 0.06 to 1.95 µg/mL (≈ 0.241 to 7.82 µM) | MIC [2]: 0.06 to 7.8 µg/mL (≈ 0.241 to 31.3 µM) | toxicity (HepG2 cells): no toxicity | MIC [3]: 0.49 µg/mL (≈ 1.97 µM) | MIC [4]: 3.9 µg/mL (≈ 15.6 µM) | MIC [5]: 0.24 µg/mL (≈ 0.963 µM) | MIC [6]: 0.98 µg/mL (≈ 3.93 µM) | MIC [7]: 0.49 µg/mL (≈ 1.97 µM) | MIC [8]: 1.95 µg/mL (≈ 7.82 µM) | MIC [9]: 0.12 µg/mL (≈ 0.482 µM) | MIC [10]: ≤ 0.06 µg/mL | MIC [11]: 0.49 µg/mL (≈ 1.97 µM)

O=C(NNc1cc(F)cc(F)c1)c1ccccn1 [Compound 2i]
MIC [1]: 0.06 to 1.95 µg/mL (≈ 0.241 to 7.82 µM) | MIC [2]: 0.06 to 1.95 µg/mL (≈ 0.241 to 7.82 µM) | cell survival (HepG2 cells; at 31.3 j·tg mL^−1): 89% | MIC [3]: 1.95 µg/mL (≈ 7.82 µM) | MIC [4]: 0.24 µg/mL (≈ 0.963 µM) | MIC [5]: 0.24 µg/mL (≈ 0.963 µM) | MIC [6]: 0.12 µg/mL (≈ 0.482 µM) | MIC [7]: 0.49 µg/mL (≈ 1.97 µM) | MIC [8]: 0.49 µg/mL (≈ 1.97 µM) | MIC [9]: 0.24 µg/mL (≈ 0.963 µM) | MIC [10]: 0.12 µg/mL (≈ 0.482 µM) | MIC [11]: 0.49 µg/mL (≈ 1.97 µM)

O=C(NNc1cccc(Cl)c1)c1cnccn1 [Compound 9b]
MIC [1]: 0.06 to 1.95 µg/mL (≈ 0.241 to 7.84 µM) | MIC [2]: 0.06 to 1.95 µg/mL (≈ 0.241 to 7.84 µM) | toxicity (HepG2 cells): no toxicity | MIC [3]: 0.98 µg/mL (≈ 3.94 µM) | MIC [4]: 0.12 µg/mL (≈ 0.483 µM) | MIC [5]: 0.24 µg/mL (≈ 0.965 µM) | MIC [6]: 0.12 µg/mL (≈ 0.483 µM) | MIC [7]: 0.24 µg/mL (≈ 0.965 µM) | MIC [8]: 0.49 µg/mL (≈ 1.97 µM) | MIC [9]: 0.24 µg/mL (≈ 0.965 µM) | MIC [10]: 0.12 µg/mL (≈ 0.483 µM) | MIC [11]: 0.12 µg/mL (≈ 0.483 µM)

COc1ccc(NNC(=O)c2cnccn2)cc1 [Compound 9f]
MIC [1]: 0.06 to 1.95 µg/mL (≈ 0.246 to 7.98 µM) | MIC [2]: 0.06 to 1.95 µg/mL (≈ 0.246 to 7.98 µM) | toxicity (HepG2 cells): no toxicity | MIC [3]: 0.98 µg/mL (≈ 4.01 µM) | MIC [4]: 0.49 µg/mL (≈ 2.01 µM) | MIC [5]: 0.49 µg/mL (≈ 2.01 µM) | MIC [6]: 0.98 µg/mL (≈ 4.01 µM) | MIC [7]: 0.24 µg/mL (≈ 0.983 µM) | MIC [8]: 0.98 µg/mL (≈ 4.01 µM) | MIC [9]: 0.49 µg/mL (≈ 2.01 µM) | MIC [10]: 0.49 µg/mL (≈ 2.01 µM) | MIC [11]: 0.49 µg/mL (≈ 2.01 µM)

O=C(NNc1ccc(F)cc1F)c1cnccn1 [Compound 9g]
MIC [1]: 0.12 to 7.8 µg/mL (≈ 0.48 to 31.2 µM) | MIC [2]: 0.06 to 7.8 µg/mL (≈ 0.24 to 31.2 µM) | toxicity (HepG2 cells): no toxicity | MIC [3]: 7.8 µg/mL (≈ 31.2 µM) | MIC [4]: 7.8 µg/mL (≈ 31.2 µM) | MIC [5]: 1.95 µg/mL (≈ 7.79 µM) | MIC [6]: 0.98 µg/mL (≈ 3.92 µM) | MIC [7]: 0.24 µg/mL (≈ 0.959 µM) | MIC [8]: 3.9 µg/mL (≈ 15.6 µM) | MIC [9]: 0.49 µg/mL (≈ 1.96 µM) | MIC [10]: 1.95 µg/mL (≈ 7.79 µM) | MIC [11]: 0.24 µg/mL (≈ 0.959 µM)
